How the values were obtained:
PSMA [1] = molecular target: T1, PSMA (Homo sapiens, UniProt Q04609); experiment: In vitro competitive binding assay to determine IC50 to PSMA; details: LNCaP cells, [125I]MIP-1095 radioligand, 37° C. 1 h, mean±SD (n=4); read-out: PSMA binding affinities of cold ligands, IC50
T1 construct: 100 μL of freshly harvested PSMA cells; endogenous in cells; host or cells: 'PSMA cells' in the method
Experimental: In Vitro Competitive Binding Assay to Determine IC50 to PSMA
In order to determine the binding affinity, in vitro competitive binding assays were performed. The LNCaP cells were incubated with 150,000 cpm of [^125I]MIP-1095 in the presence of 10 different concentrations of competing drugs. After incubation at 37° C. for 1 h, the bound and free radioactivity were separated by vacuum filtration through GF/B filter paper using a Brandel M-24R cell harvester followed by washing twice. Non-specific binding was defined with 10 μM PMPA. The cell bound radioactivity was measured with a gamma counter, 2470 Wizard^2 (Perkin-Elmer, IL). The IC50 values were calculated by fitting the data using a nonlinear regression algorithm (GraphPad Software).
The PSMA binding affinities were determined in a competitive binding assay using LNCaP human prostate carcinoma cells and the known high affinity PSMA ligand, [^125I]MIP-1095 as the radioligand. Data are expressed as mean±SD (n=4).

PSMA [2] = molecular target: T1, PSMA; experiment: In vitro binding signals of 68Ga labeled ligands in LNCaP tumor homogenates; details: Ga-68 radiolabeled ligands; for Total binding (TB): 37° C. 60 min; for Nonspecific binding (NSB): with 1a (PSMA11) 10 μM
[3] = Biodistribution of radiotracers in normal mice; assay type: in vivo, mouse; details: normal male mice
Experimental: Normal CD-1 male mice were injected via the tail vein with 35 μCi of [^68Ga] radiotracers (0.2 nmole of ligand). […] All organs were removed and blood was also collected. Each organ was weighed, and the tissue radioactivity was measured with an automated gamma counter (Wizard, Perkin Elmer). The % ID/g was calculated by comparison with samples of a standard dilution of the initial dose. All measurements were corrected for decay.

[4] = system: LNCaP (left shoulder) and PC-3 (right shoulder) tumor bearing nude mouse; experiment: Small animal PET imaging with [68Ga]1a and [68Ga]4a; assay type: in vivo; details: 60 to 75 min after i.v. injection
Experimental: Male athymic mice (CD-1 nude, 5-6 weeks old) were obtained from Charles River, and were allowed to acclimatize at the vivarium for 1 week prior to implanting tumors. Mice were provided with food and water ad libitum. LNCaP tumors were induced on the left shoulder by sub-cutaneous (s.c.) injection of 5.0×10^6 cells in a 200 μL cell suspension of a 1:1 v/v mixture of media with reconstituted basement membrane (BD Matrigel™, Collaborative Biomedical Products Inc., Bedford, Mass.). Similarly, PC-3 tumors were induced on the right shoulder by s.c. injection of 2.0×10^6 cells. Palpable LNCaP tumors developed after a period of 4-5 weeks.
Dynamic small animal PET (APET) imaging studies of LNCaP (left shoulder) and PC-3 (right shoulder) tumor bearing nude mouse were performed with [^68Ga]1a and [^68Ga]4a. PET imaging studies were performed on a Phillips Mosaic small animal PET scanner, which has an imaging field of view of 11.5 cm. Under isoflurane anesthesia (1-2%, 1 L/min oxygen), the tumor-bearing nude mouse was injected with 0.5 mCi activity by an intravenous injection into the lateral tail vein. Data acquisition began at 30 min after the injection. Dynamic scans were conducted over a period of 1 h (5 min/frame; image voxel size 0.5 mm^3). Mouse was visually monitored for breathing, and a heating pad was used to maintain body temperature throughout the entire procedure. Images were reconstructed and a region of interest (ROI) analysis was performed using AMIDE software (http://amide.sourceforge.net/).
Representative animal PET images of LNCaP xenograft mice between 60 to 75 min after i.v. injection of [^68Ga]1a, and [^68Ga]4a are shown in FIGS. 3A-3F. […] FIGS. 3A-3F show sagittal, transaxial and coronal sections of APET images of nude mouse with LNCaP tumor at left shoulder and PC-3 tumor at right shoulder between 60 to 75 min post i.v. injection of [^68Ga]1a (FIGS. 3A-3C) and [^68Ga]4a (FIG. 3D-3F).

T1 sequence (Q04609 whole entry): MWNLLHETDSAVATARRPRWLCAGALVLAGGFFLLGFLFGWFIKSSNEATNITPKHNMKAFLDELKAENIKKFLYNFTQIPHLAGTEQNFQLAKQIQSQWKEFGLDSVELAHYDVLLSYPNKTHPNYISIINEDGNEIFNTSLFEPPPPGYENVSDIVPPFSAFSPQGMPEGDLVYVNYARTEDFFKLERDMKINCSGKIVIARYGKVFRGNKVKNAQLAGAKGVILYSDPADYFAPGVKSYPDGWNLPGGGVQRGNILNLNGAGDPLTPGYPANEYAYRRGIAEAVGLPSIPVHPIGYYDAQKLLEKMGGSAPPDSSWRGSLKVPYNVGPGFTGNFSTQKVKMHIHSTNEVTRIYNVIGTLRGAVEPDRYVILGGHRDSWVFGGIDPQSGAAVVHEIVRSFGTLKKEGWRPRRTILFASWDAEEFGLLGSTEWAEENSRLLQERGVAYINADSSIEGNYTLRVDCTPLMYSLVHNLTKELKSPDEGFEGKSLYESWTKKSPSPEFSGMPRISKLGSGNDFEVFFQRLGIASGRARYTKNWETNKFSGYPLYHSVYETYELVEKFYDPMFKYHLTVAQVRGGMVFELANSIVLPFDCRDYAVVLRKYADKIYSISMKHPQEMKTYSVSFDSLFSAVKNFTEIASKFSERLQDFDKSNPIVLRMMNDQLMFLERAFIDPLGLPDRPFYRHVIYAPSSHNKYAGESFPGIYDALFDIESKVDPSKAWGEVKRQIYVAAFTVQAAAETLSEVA

## O=C(O)CC[C@H](NC(=O)N[C@@H](CCCCNC(=O)[C@H](Cc1ccccc1)NC(=O)COc1ccc(C[C@H](NC(=O)CNC(=O)CN2CCN(CC(=O)O)CCN(CC(=O)O)CCN(CC(=O)O)CC2)C(=O)O)cc1)C(=O)O)C(=O)O [Compound 5a, (4S,11S,15S)-4-Benzyl-1-(4-((S)-2-carboxy-2-(2-(2-(4,7,10-tris(carboxymethyl)-1,4,7,10-tetraazacyclododecan-1-yl)acetamido)acetamido)ethyl)phenoxy)-2,5,13-trioxo-3,6,12,14-tetraazaheptadecane-11,15,17-tricarboxylic acid.]
PSMA [1]
  IC50: 36.1 ± 18.1 nM
PSMA [2]
  Specific binding (SB) SB = TB − NSB: 2.83
  Total binding (TB): 3.30
  Nonspecific binding (NSB): 0.47

## O=C(O)CC[C@H](NC(=O)N[C@@H](CCCCNC(=O)CCCCCNC(=O)CCc1ccc(O)c(CN(CCN(CC(=O)O)Cc2nc(CCC(=O)NCCCCCC(=O)NCCCC[C@H](NC(=O)N[C@@H](CCC(=O)O)C(=O)O)C(=O)O)ccc2O)CC(=O)O)n1)C(=O)O)C(=O)O [Compound 3, (3S,3′S,7S,7′S)-22,22′-(6,6′-((Ethane-1,2-diylbis((carboxymethyl)azanediyl))bis(methylene))bis(5-hydroxypyridine-6,2-diyl))bis(5,13,20-trioxo-4,6,12,19-tetraazadocosane-1,3,7-tricarboxylic acid)]
PSMA [1]
  IC50: 132 ± 11 nM
PSMA [2]
  Specific binding (SB) SB = TB − NSB: 5.8
  Total binding (TB): 10.0
  Nonspecific binding (NSB): 4.2

## O=C(O)CCc1ccc(O)c(CN(CCN(CC(=O)O)Cc2nc(CCC(=O)NCCCCCC(=O)NCCCC[C@H](NC(=O)N[C@@H](CCC(=O)O)C(=O)O)C(=O)O)ccc2O)CC(=O)O)n1 [Compound 2, (3S,7S)-22-(6-(((2-(((6-(2-Carboxyethyl)-3-hydroxypyridin-2-yl)methyl) (carboxymethyl)amino)ethyl)(carboxymethyl)amino)methyl)-5-hydroxypyridin-2-yl)-5,13,20-trioxo-4,6,12,19-tetraazadocosane-1,3,7-tricarboxylic acid]
PSMA [1]
  IC50: 40.4 ± 18.3 nM
PSMA [2]
  Specific binding (SB) SB = TB − NSB: 4.1
  Total binding (TB): 9.2
  Nonspecific binding (NSB): 5.1

## O=C(O)CCc1ccc(O)c(CN(CCN(CC(=O)O)Cc2cc(CCC(=O)NCCCCCC(=O)NCCCC[C@H](NC(=O)N[C@@H](CCC(=O)O)C(=O)O)C(=O)O)ccc2O)CC(=O)O)n1 [[^68Ga]4a, metal not drawn]
[3]; 2 min
  Biodistribution: Blood: 8.59 ± 0.82 % dose/g
  Biodistribution: Bone: 2.33 ± 0.21 % dose/g
  Biodistribution: Brain: 0.27 ± 0.04 % dose/g
  Biodistribution: Heart: 3.62 ± 0.34 % dose/g
  Biodistribution: Kidney: 60.7 ± 2.89 % dose/g
  Biodistribution: Liver: 2.22 ± 0.23 % dose/g
  Biodistribution: Lung: 5.45 ± 0.44 % dose/g
  Biodistribution: Muscle: 2.68 ± 0.30 % dose/g
  Biodistribution: Pancreas: 2.35 ± 0.12 % dose/g
  Biodistribution: Skin: 2.84 ± 0.19 % dose/g
  Biodistribution: Spleen: 3.64 ± 0.16 % dose/g
[3]; 30 min
  Biodistribution: Blood: 0.95 ± 0.33 % dose/g
  Biodistribution: Bone: 0.37 ± 0.10 % dose/g
  Biodistribution: Brain: 0.04 ± 0.01 % dose/g
  Biodistribution: Heart: 0.56 ± 0.21 % dose/g
  Biodistribution: Kidney: 148 ± 5.73 % dose/g
  Biodistribution: Liver: 0.39 ± 0.12 % dose/g
  Biodistribution: Lung: 1.55 ± 0.30 % dose/g
  Biodistribution: Muscle: 0.61 ± 0.10 % dose/g
  Biodistribution: Pancreas: 0.89 ± 0.12 % dose/g
  Biodistribution: Skin: 0.99 ± 0.16 % dose/g
  Biodistribution: Spleen: 3.51 ± 1.69 % dose/g
[3]; 60 min
  Biodistribution: Blood: 0.30 ± 0.03 % dose/g
  Biodistribution: Bone: 0.24 ± 0.02 % dose/g
  Biodistribution: Brain: 0.03 ± 0.00 % dose/g
  Biodistribution: Heart: 0.31 ± 0.14 % dose/g
  Biodistribution: Kidney: 181 ± 26.81 % dose/g
  Biodistribution: Liver: 0.23 ± 0.01 % dose/g
  Biodistribution: Lung: 1.18 ± 0.14 % dose/g
  Biodistribution: Muscle: 0.35 ± 0.07 % dose/g
  Biodistribution: Pancreas: 1.09 ± 0.27 % dose/g
  Biodistribution: Skin: 0.45 ± 0.07 % dose/g
  Biodistribution: Spleen: 2.83 ± 1.49 % dose/g
[3]; 120 min
  Biodistribution: Blood: 0.20 ± 0.10 % dose/g
  Biodistribution: Bone: 0.23 ± 0.06 % dose/g
  Biodistribution: Brain: 0.02 ± 0.00 % dose/g
  Biodistribution: Heart: 0.21 ± 0.03 % dose/g
  Biodistribution: Kidney: 128 ± 25.0 % dose/g
  Biodistribution: Liver: 0.18 ± 0.05 % dose/g
  Biodistribution: Lung: 0.83 ± 0.21 % dose/g
  Biodistribution: Muscle: 0.20 ± 0.03 % dose/g
  Biodistribution: Pancreas: 1.02 ± 0.26 % dose/g
  Biodistribution: Skin: 0.30 ± 0.02 % dose/g
  Biodistribution: Spleen: 2.83 ± 1.25 % dose/g
[4]
  LNCaP tumor visualization in PET images, in words: clearly visualized
  PC-3 (PSMA negative) tumor uptake in PET images, in words: did not show any uptakes

## O=C(O)CC[C@H](NC(=O)N[C@@H](CCCCNC(=O)CCCCCNC(=O)CCc1ccc(O)c(CN(CCN(CC(=O)O)Cc2cc(CCC(=O)N[C@@H](CC(=O)O)C(=O)O)ccc2O)CC(=O)O)c1)C(=O)O)C(=O)O [Compound 1e, (3S,7S)-22-(3-(((Carboxymethyl)(2-((carboxymethyl)(5-(3-(((S)-1,2-dicarboxyethyl)amino)-3-oxopropyl)-2-hydroxybenzyl)amino)ethyl)amino)methyl)-4-hydroxyphenyl)-5,13,20-trioxo-4,6,12,19-tetraazadocosane-1,3,7-tricarboxylic acid]
PSMA [1]
  IC50: 29.5 ± 11 nM
PSMA [2]
  Specific binding (SB) SB = TB − NSB: 13.2
  Total binding (TB): 14.8
  Nonspecific binding (NSB): 1.6

From patent US10688200B2, “Urea-based prostate specific membrane antigen (PSMA) inhibitors for imaging and therapy” (Five Eleven Pharma Inc., priority 2015, dated 2020)
